This experiment has as its system BDF1 mice, P388 leukemia ip, median survival T/C. Briefly: NCI In Vivo Anticancer Drug Screen. Data for tumor model P388 Leukemia (intraperitoneal) in B6D2F1 (BDF1) mice. To be noted: endpoint: median survival time, higher = longer survival. In short, it runs like this:
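Steps: implant the tumour, treat one group with compound and another with vehicle, record survival, then divide treated by control.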

[1] abbreviates: dose: 100.0 mg/kg/injection, schedule: Q01DX009 (ip), vehicle: saline with Tween-80.
Where [2] appears, read: dose: 200.0 mg/kg/injection, schedule: Q01DX009 (ip), vehicle: saline with Tween-80.
Setting [3] is: dose: 400.0 mg/kg/injection, schedule: Q04DX003 (ip), vehicle: saline.
Setting [4] is: dose: 25.0 mg/kg/injection, schedule: Q04DX003 (ip), vehicle: saline.
[5] abbreviates: dose: 100.0 mg/kg/injection, schedule: Q04DX003 (ip), vehicle: saline.
The mark [6] stands for this setting: dose: 200.0 mg/kg/injection, schedule: Q04DX003 (ip), vehicle: saline.
The mark [7] stands for this setting: dose: 50.0 mg/kg/injection, schedule: Q01DX009 (ip), vehicle: saline with Tween-80.

Values joined by “and” are separate entries in the source; they are usually repeats but may differ in a detail not shown here. Equal values may be shown once. Toxic doses and inconclusive results are not listed.

Data on 19 molecules can be found in PubChem BioAssay AID328 (DTP/NCI, 2004).

As for `CCCCCn1cnc2c(=S)nc[nH]c21`, the T/C reads like this: under setting [1], 90 % of control; under setting [2], 104 % of control; (dose: 400.0 mg/kg/injection, schedule: Q01DX009 (ip), vehicle: saline with Tween-80) 90 % of control.

With `COC1=C(O)C(C(O)CO)OC1=O` (stereo not given), the T/C by setting is: (dose: 6.25 mg/kg/injection, schedule: Q01DX009 (ip), vehicle: water) 94 % of control; (dose: 12.5 mg/kg/injection, schedule: Q01DX009 (ip), vehicle: water) 112 % of control; (dose: 25.0 mg/kg/injection, schedule: Q01DX009 (ip), vehicle: water) 110 % of control; (dose: 25.0 mg/kg/injection, schedule: Q04DX003 (ip), vehicle: water) 112 % of control; (dose: 50.0 mg/kg/injection, schedule: Q01DX009 (ip), vehicle: water) 100 % of control; (dose: 50.0 mg/kg/injection, schedule: Q04DX003 (ip), vehicle: water) 97 % of control. The T/C is 91 % of control (dose: 100.0 mg/kg/injection, schedule: Q01DX009 (ip), vehicle: water); 100 % of control (dose: 100.0 mg/kg/injection, schedule: Q04DX003 (ip), vehicle: water); 103 % of control (dose: 200.0 mg/kg/injection, schedule: Q01DX009 (ip), vehicle: water); 95 % of control (dose: 200.0 mg/kg/injection, schedule: Q04DX003 (ip), vehicle: water); 100 % of control (dose: 400.0 mg/kg/injection, schedule: Q01DX009 (ip), vehicle: water); 105 % of control (dose: 400.0 mg/kg/injection, schedule: Q04DX003 (ip), vehicle: water).

On to `CCOC(=O)c1cnc2ccc3ccccc3n2c1=O`, for which the T/C was 101 % of control (dose: 50.0 mg/kg/injection, schedule: Q04DX002 (ip), vehicle: saline with Tween-80); 101 % of control (dose: 100.0 mg/kg/injection, schedule: Q04DX002 (ip), vehicle: saline with Tween-80); 93 % of control (dose: 200.0 mg/kg/injection, schedule: Q04DX002 (ip), vehicle: saline with Tween-80).

For the molecule `CC(C)CSC(C)C`, the T/C (dose: 25.0 mg/kg/injection, schedule: Q01DX009 (ip), vehicle: saline) is 110 % of control; the T/C (dose: 50.0 mg/kg/injection, schedule: Q01DX009 (ip), vehicle: saline) was 110 % of control; the T/C (dose: 100.0 mg/kg/injection, schedule: Q01DX009 (ip), vehicle: saline) is 110 % of control.

Consider `COC1CCC(C=O)C(C#N)(C#N)C1(C#N)C#N` (stereo not given), for which the T/C (dose: 50.0 mg/kg/injection, schedule: Q01DX001 (ip), vehicle: saline with Tween-80) is 112 % of control and the T/C (dose: 100.0 mg/kg/injection, schedule: Q01DX001 (ip), vehicle: saline with Tween-80) is 100 % of control.

Turning to `N=c1ccn2c(n1)OC1C(OP(=O)(O)O)C(CO)OC12` (stereo not given), the T/C was 109 % of control (dose: 52.0 mg/kg/injection, schedule: Q04DX003 (ip), vehicle: saline); 159 % of control (dose: 118.0 mg/kg/injection, schedule: Q04DX003 (ip), vehicle: saline); 172 % of control and 185 % of control (dose: 177.0 mg/kg/injection, schedule: Q04DX003 (ip), vehicle: saline); 172 % of control (dose: 266.0 mg/kg/injection, schedule: Q04DX003 (ip), vehicle: saline with Tween-80); 205 % of control (dose: 266.0 mg/kg/injection, schedule: Q04DX003 (ip), vehicle: saline); 181 % of control (dose: 400.0 mg/kg/injection, schedule: Q04DX003 (ip), vehicle: saline with Tween-80). Besides, the T/C under setting [3] was 200 % of control; the T/C (dose: 600.0 mg/kg/injection, schedule: Q04DX003 (ip), vehicle: saline with Tween-80) is 200 % of control; the T/C (dose: 600.0 mg/kg/injection, schedule: Q04DX003 (ip), vehicle: saline) is 230 % of control.

Regarding `O.[NH-]C(Cc1ccc(O)cc1)C(=O)O.[Ni]` (stereo not given), the T/C is 98 % of control (dose: 6.25 mg/kg/injection, schedule: Q01DX009 (ip), vehicle: saline); 107 % of control (dose: 12.5 mg/kg/injection, schedule: Q01DX009 (ip), vehicle: saline); 100 % of control under setting [4].

For the molecule `CC(=O)N(C)c1ccc(N)cc1`, the T/C under setting [5] is 100 % of control, the T/C under setting [6] is 100 % of control and the T/C under setting [3] is 109 % of control.

Take `O=c1[nH][nH]c(=O)n1O`: the T/C is 100 % of control (dose: 200.0 mg/kg/injection, schedule: Q01DX009 (ip), vehicle: saline) and 95 % of control (dose: 400.0 mg/kg/injection, schedule: Q01DX009 (ip), vehicle: saline).

`CCN1CCCC(Nc2nc(C(Cl)(Cl)Cl)nc3cc(Cl)ccc23)C1` (stereo not given): the T/C (dose: 25.0 mg/kg/injection, schedule: Q01DX009 (ip), vehicle: saline with Tween-80) was 109 % of control; the T/C under setting [7] is 113 % of control; the T/C under setting [1] is 104 % of control.

Regarding `CCCCCC(C(C)=O)(C1=NC(C)(C)CC(C)O1)c1ccccc1` (stereo not given), the T/C under setting [5] is 110 % of control and the T/C under setting [6] is 95 % of control.

For `COc1ccc(-c2oc3cc(O)c(OC)c(O)c3c(=O)c2OC)cc1O`, the T/C is 100 % of control (dose: 10.0 mg/kg/injection, schedule: Q01DX010 (ip), vehicle: saline); 100 % of control (dose: 20.0 mg/kg/injection, schedule: Q01DX010 (ip), vehicle: saline); 113 % of control (dose: 40.0 mg/kg/injection, schedule: Q01DX010 (ip), vehicle: saline).

For the molecule `CCCCCCC(O)CCc1ccccc1` (stereo not given), the T/C runs as follows: (dose: 100.0 mg/kg/injection, schedule: Q01DX001 (ip), vehicle: Klucel (hydroxypropylcellulose) (HPC)) 100 % of control; (dose: 200.0 mg/kg/injection, schedule: Q01DX001 (ip), vehicle: Klucel (hydroxypropylcellulose) (HPC)) 95 % of control; (dose: 400.0 mg/kg/injection, schedule: Q01DX001 (ip), vehicle: Klucel (hydroxypropylcellulose) (HPC)) 104 % of control.

Consider `CCSC(C(OC(C)=O)C(OC(C)=O)C(OC(C)=O)C(COC(C)=O)OC(C)=O)n1cnc2c(=S)nc[nH]c21` (stereo not given), for which the T/C was 98 % of control (dose: 12.5 mg/kg/injection, schedule: Q01DX005 (ip), vehicle: saline with Tween-80) and 95 % of control (dose: 25.0 mg/kg/injection, schedule: Q01DX005 (ip), vehicle: saline with Tween-80).

As for `Nc1c(Br)cc(Br)c(C(=O)O)c1Br`, the T/C (dose: 50.0 mg/kg/injection, schedule: Q04DX003 (ip), vehicle: Klucel (hydroxypropylcellulose) (HPC)) was 100 % of control; the T/C (dose: 100.0 mg/kg/injection, schedule: Q04DX003 (ip), vehicle: Klucel (hydroxypropylcellulose) (HPC)) is 100 % of control; the T/C (dose: 200.0 mg/kg/injection, schedule: Q04DX003 (ip), vehicle: Klucel (hydroxypropylcellulose) (HPC)) was 95 % of control.

Consider `O=C(c1ccccc1)C1CCC(=O)C1c1ccccc1` (stereo not given), for which the T/C is 108 % of control under setting [7], 100 % of control under setting [1] and 99 % of control under setting [2].

On to `COCn1cnc2c(F)ncnc21`, for which the T/C (dose: 6.25 mg/kg/injection, schedule: Q01DX009 (ip), vehicle: Klucel (hydroxypropylcellulose) (HPC)) is 86 % of control; the T/C (dose: 6.25 mg/kg/injection, schedule: Q04DX003 (ip), vehicle: saline) was 95 % of control; the T/C (dose: 12.5 mg/kg/injection, schedule: Q01DX009 (ip), vehicle: Klucel (hydroxypropylcellulose) (HPC)) was 90 % of control; the T/C (dose: 12.5 mg/kg/injection, schedule: Q04DX003 (ip), vehicle: saline) is 109 % of control; the T/C (dose: 25.0 mg/kg/injection, schedule: Q01DX009 (ip), vehicle: Klucel (hydroxypropylcellulose) (HPC)) is 86 % of control; the T/C under setting [4] is 100 % of control.

Turning to `COc1cccc(CC2=C3CCCN(C(=O)c4ccccc4)C3CCC2=O)c1` (stereo not given), the T/C is 90 % of control (dose: 100.0 mg/kg/injection, schedule: Q01DX001 (ip), vehicle: saline sonified); 90 % of control (dose: 200.0 mg/kg/injection, schedule: Q01DX001 (ip), vehicle: saline sonified); 104 % of control (dose: 400.0 mg/kg/injection, schedule: Q01DX001 (ip), vehicle: saline sonified).

Regarding `CCN(CC)CCCNc1cccc2c(C)cc(OC)nc12`, the T/C is 97 % of control under setting [7] and 114 % of control under setting [1].
